Experimental findings from US5021431A, “Imidazolyl alkyl guanidine derivatives, processes for their preparation and pharmaceutical preparations containing these compounds” (Heumann Pharma GmbH & Co., priority 1985, dated 1991) are described below.

Each structure is given as a SMILES string. Counter-ions that a name gives are not always drawn. Like-named read-outs stand apart in the source and are kept apart here.

The target in test [1] is H1 receptor (Cavia porcellus, UniProt P31389). As to the kind of experiment: cell-based. As to conditions: isolated ileum of the guinea pig; for Kb: read-out: pA2 ileum (H1-antagonistic effect) (converted). The text has this:
The new class of structures according to the invention has both an H1 -antagonistic and an H2 -agonistic active component. […] One recognized method for determining H1 -antagonistic activity is the determination of the pA2 -values in vitro (O. ARUNLAKSHANA and H. O. SCHILD (1959) Some quantitative uses of drug antagonists--Br. J. Pharmacol. Chemother. 14, 48-58).
(§1) Pharmacological Data (determined on the isolated atrium or ileum of the guinea-pig)
(§2) The values listed below represent the H2 -agonistic (pD2) and H1 -antagonistic (pA2) effect of the dual active compounds

Test [2] concerns the target T1, histamine-H2 receptors (Cavia porcellus, UniProt P47747).
T1 construct: determined on the isolated atrium or ileum of the guinea-pig; from tissue; host or cells: isolated right atrium of the guinea-pig
Briefly: cell-based. The arrangement: species or system guinea-pig.
Text: For determining the H2 -agonistic activity (pD2 -values), use is made of the method according to J. M. VAN ROSSUM, (1963), Cumulative dose-response curves, II, Technique for the making of dose-response curves in isolated organs and the evaluation of drug parameters, Arch. Int. Pharmacodyn. Ther. 143, 299-307.
as §1, §2

[3] abbreviates: isolated right atrium of the guinea pig, read-out: pD2 right atrium (H2-agonistic effect) (converted).
The mark [4] stands for this setting: isolated right atrium of the guinea pig.

T1 sequence (P47747 whole entry): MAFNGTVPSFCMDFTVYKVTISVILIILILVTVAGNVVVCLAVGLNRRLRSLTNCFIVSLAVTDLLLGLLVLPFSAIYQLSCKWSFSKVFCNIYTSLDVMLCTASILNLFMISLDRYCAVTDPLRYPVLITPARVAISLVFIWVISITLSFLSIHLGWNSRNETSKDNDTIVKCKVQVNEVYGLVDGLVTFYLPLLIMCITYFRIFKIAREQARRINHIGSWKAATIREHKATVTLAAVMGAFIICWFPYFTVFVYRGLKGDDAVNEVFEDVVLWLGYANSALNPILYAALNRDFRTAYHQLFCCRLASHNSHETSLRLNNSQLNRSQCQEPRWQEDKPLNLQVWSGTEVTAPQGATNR
Chain of H1 receptor (P31389 whole entry): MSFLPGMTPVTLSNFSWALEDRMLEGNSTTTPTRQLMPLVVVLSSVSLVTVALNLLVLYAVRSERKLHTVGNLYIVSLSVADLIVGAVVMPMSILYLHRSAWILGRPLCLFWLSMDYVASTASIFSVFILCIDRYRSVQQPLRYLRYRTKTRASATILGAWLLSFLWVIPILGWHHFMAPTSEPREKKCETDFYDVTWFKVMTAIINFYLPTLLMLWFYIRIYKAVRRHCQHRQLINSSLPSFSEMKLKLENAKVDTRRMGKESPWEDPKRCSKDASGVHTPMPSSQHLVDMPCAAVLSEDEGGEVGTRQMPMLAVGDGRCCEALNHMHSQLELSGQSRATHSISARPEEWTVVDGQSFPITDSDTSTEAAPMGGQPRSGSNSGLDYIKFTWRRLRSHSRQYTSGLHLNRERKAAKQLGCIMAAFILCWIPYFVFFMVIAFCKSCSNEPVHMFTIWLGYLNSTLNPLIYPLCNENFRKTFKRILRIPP

`Cc1ccc(N(C)CCCNC(=N)NCCCc2c[nH]cn2)nc1` [Example 10, N^1-[3-[N-(5-Methyl-pyridin-2-yl)-methylamino]propyl]-N^2-[3-(1H-imidazol-4-yl)propyl]guanidine trihydrochloride]: the Kb in test [1] was 112 nM. The EC50 in test [2] (setting [3]) was 891 nM.
In the same order, the values of `N=C(NCCCCc1cccnc1)NCCCc1c[nH]cn1` [Example 12, N^1-[4-(Pyridin-3-yl)butyl]-N^2-[3-(1H-imidazol-4-yl)propyl]guanidine trihydrochloride] are 562 nM and 200 nM.
In the same order, the values of `Cc1cc(Br)cnc1CCCCNC(=N)NCCCc1c[nH]cn1` [Example 17, N^1-[4-(5-Bromo-3-methyl-pyridin-2-yl)butyl]-N^2 [3-(1H-imidazol-4-yl)propyl]-guanidine trihydrochloride] are 3.24 nM and 1200 nM.
The matching figures for `Cc1[nH]c(CN(C)C)nc1CSCCNC(=N)NCCCc1c[nH]cn1` [Example 51, N-[2-[(2-Dimethylaminomethyl-5-methylimidazol-4-yl)methylthio]ethyl]-N'-[3-(imidazol-4-yl)propyl]-guanidine]: 3160 nM and 67.6 nM.
Consider `CC(SCCNC(=N)NCCCc1c[nH]cn1)c1ccccc1` (stereo not drawn) [Example 60, N-[3-(Imidazol-4-yl)propyl]-N'-[2-[(1-phenylethyl)thio]ethyl]-guanidine], for which the Kb in test [1] is 2290 nM. Also, the EC50 in test [2] (setting [3]) was 288 nM.
The matching figures for `Cc1ccc(C(SCCNC(=N)NCCCc2c[nH]cn2)c2ccccc2)cc1` (stereo not drawn) [Example 62, N-[3-(Imidazol-4-yl)propyl]-N'-[2-[(p-methyl-α-phenylbenzyl)thio]ethyl]-guanidine]: 11500 nM and 3890 nM.
For `N=C(NCCCc1c[nH]cn1)NCCC(c1ccccc1)c1ccccc1` [Example 78, N-[3-(Imidazol-4-yl)propyl]-N'-(3.3-diphenylpropyl)-guanidine], in test [1], the “pA2 ileum (H1-antagonistic effect)” value is given as 7.20 and the Kb was 63.1 nM. Further, the EC50 in test [2] (setting [3]) was 67.6 nM.
`Cc1[nH]cnc1CCCNC(=N)NCCC(c1ccccc1)c1ccccc1` [Example 96, N-[3-(5-Methylimidazol-4-yl)propyl]-N'-(3,3-diphenylpropyl)-guanidine]: in test [1], the “pA2 ileum (H1-antagonistic effect)” value came to 6.9 and the Kb was 126 nM. Also, in test [2] (setting [3]), the EC50 was 126 nM.
As to `N=C(NCCCc1c[nH]cn1)NCCCC(c1ccccc1)c1ccccc1` [Example 97, N-[3-(Imidazol-4-yl)propyl]-N'(4,4-diphenylbutyl)-guanidine], the Kb in test [1] is 158 nM. Further, the EC50 in test [2] (setting [3]) was 200 nM.
Consider `N=C(NCCCc1c[nH]cn1)NCCN(Cc1ccccc1)c1ccccc1` [Example 101, N^1-[3-(4-Imidazolyl)propyl]-N^2-[2-(N-benzyl-N-phenylamino)-ethyl]-guanidine trihydrochloride], for which the “pA2 ileum (H1-antagonistic effect)” value in test [1] is on record as 7.41. Also, the “pD2 right atrium (H2-agonistic effect)” value in test [2] (setting [4]) turned out to be 6.15.
Consider `N=C(NCCCc1c[nH]cn1)NCCN(Cc1ccccc1)c1ccc(F)cc1` [Example 102, N^1-[3-(4-Imidazolyl)propyl]-N^2-[2-(N-benzyl-N-(4-fluorophenyl)amino)ethyl]-guanidine trihydrochloride], for which the Kb in test [1] is 25.1 nM. In test [2] (setting [3]), the EC50 is 234 nM.
As for `N=C(NCCCc1c[nH]cn1)NCCN(Cc1ccccc1)c1ccc(Cl)cc1` [Example 103, N^1-[3-(4-Imidazolyl)propyl]-N^2-[2-(N-benzyl-N-(4-chlorophenyl)amino)ethyl]-guanidine trihydrochloride], the Kb in test [1] was 29.5 nM. In addition, the EC50 in test [2] (setting [3]) is 2690 nM.
The matching figures for `N=C(NCCCc1c[nH]cn1)NCCN(Cc1ccccc1)c1ccc(Br)cc1` [Example 104, N^1-[3-(4-Imidazolyl)propyl]-N^2-[2-(N-benzyl-N-(4-bromophenyl)amino)ethyl]-guanidine trihydrochloride]: 57.5 nM and 6920 nM.
As to `N=C(NCCCc1c[nH]cn1)NCCSCc1cccs1` [Example 105, N-[3-(Imidazol-4-yl)propyl]-N'-[2-(2-thenylthio)ethyl]-guanidine], the Kb in test [1] was 1230 nM. In addition, in test [2], the EC50 was 51.3 nM.
For the molecule `CC(CSCc1ccccn1)NC(=N)NCCCc1c[nH]cn1` (stereo not drawn) [Example 121, N-[3-(Imidazol-4-yl)propyl]-N'-[1-methyl-2-[(pyrid-2-yl)methylthio]-ethyl]-guanidine], in test [1], the Kb is 2000 nM. Further, the EC50 in test [2] (setting [3]) is 51.3 nM.
Consider `N=C(NCCCc1c[nH]cn1)NCCSC(c1ccccc1)c1ccccn1` (stereo not drawn) [Example 123, N-[3-(Imidazol-4-yl)propyl]-N'-[2-[(phenyl(pyrid-2-yl)methyl)thio]ethyl]-guanidine], for which the “pA2 ileum (H1-antagonistic effect)” value in test [1] worked out at 7.0. The EC50 in test [2] (setting [3]) is 224 nM.
Consider `N=C(NCCCc1c[nH]cn1)NCCC(c1ccccc1)c1ccccn1` (stereo not drawn) [Example 127], for which, in test [1], the “pA2 ileum (H1-antagonistic effect)” value is reported as 7.28 and the Kb was 52.5 nM. In addition, in test [2] (setting [4]), the “pD2 right atrium (H2-agonistic effect)” value is recorded as 7.4. In addition, the EC50 in test [2] (setting [3]) was 39.8 nM.
Regarding `N=C(NCCCc1c[nH]cn1)NCCC(c1ccc(Cl)cc1)c1ccccn1` (stereo not drawn) [Example 129, N-[3-(4-Chlorophenyl)-3-(pyrid-2-yl)propyl]-N'-[3-(imidazol-4-yl)propyl]-guanidine], the Kb in test [1] was 31.6 nM. For the same molecule, the EC50 in test [2] (setting [3]) is 63.1 nM.
The matching figures for `N=C(NCCCc1c[nH]cn1)NCCC(c1ccc(Br)cc1)c1ccccn1` (stereo not drawn) [Example 131, N-[3-(4-Bromophenyl)-3-(pyrid-2-yl)propyl]-N'-[3-(imidazol-4-yl)propyl]-guanidine]: 316 nM and 83.2 nM.
The matching figures for `NC(=NCCC(c1ccc(F)cc1)c1ccccn1)NCCCc1cnc[nH]1` (stereo not drawn) [Example 133, N-[3-(4-Fluorophenyl)-3-(pyrid-2-yl)propyl]-N'-[3-(imidazol-4-yl)propyl]-guanidine]: 31.6 nM and 12.6 nM.
`N=C(NCCCc1c[nH]cn1)NCCC(c1ccccn1)c1cccs1` (stereo not drawn) [Example 134, N-[3-(Imidazol-4-yl)propyl]-N'-[3-(pyrid-2-yl)-3-(2thienyl)propyl]-guanidine]: in test [1], the Kb was 50.1 nM. The EC50 in test [2] (setting [3]) was 93.3 nM.
As for `N=C(NCCCc1c[nH]cn1)NCCCC(c1ccccc1)c1ccccn1` (stereo not drawn) [Example 136, N-[3-(Imidazol-4-yl)propyl]-N'-[4-phenyl-4-(pyrid-2-yl)butyl]-guanidine], the “pA2 ileum (H1-antagonistic effect)” value in test [1] turned out to be 6.6. For the same molecule, the EC50 in test [2] (setting [3]) is 112 nM.
Turning to `NC(=NCCN(Cc1ccccc1)c1ccccn1)NCCCc1c[nH]cn1` [Example 140, N^1-[3-(4-imidazolyl)propyl]-N^2-[2-(N-benzyl-N-(pyrid-2-yl)-amino)ethyl]-guanidine trihydrochloride], in test [1], the Kb was 8.91 nM. For the same molecule, in test [2] (setting [3]), the EC50 was 1260 nM.
The matching figures for `N=C(NCCCc1c[nH]cn1)NCCN(Cc1ccc(Cl)cc1)c1ccccn1` [Example 141, N^1-[3-(1H-Imidazol-4-yl)propyl]-N^2-[2-[N-(4-chlorobenzyl) N-(pyridin-2-yl).amino]ethyl]-guanidine]: 12.3 nM and 1000 nM.
The matching figures for `COc1ccc(CN(CCN=C(N)NCCCc2c[nH]cn2)c2ccccn2)cc1` [Example 142, N^1-[3-(1H-Imidazol-4-yl)propyl]-N2-[2-[N-(4-methoxybenzyl)-N-(pyridin-2-yl)-amino]ethyl]-guanidine]: 8.32 nM and 1580 nM.
The matching figures for `NC(=NCCN(Cc1ccc(F)cc1)c1ccccn1)NCCCc1c[nH]cn1` [Example 143, N^1-[3-(1H-Imidazol-4-yl)propyl]-N^2-[2-[N-(4-fluorobenzyl)-N-(pyridin-2-yl)-amino]ethyl]-guanidine]: 2.57 nM and 1950 nM.
`Cc1cc(Br)cnc1N(CCNC(=N)NCCCc1c[nH]cn1)Cc1ccccc1` [Example 144, N^1-[2-[N-(5-Bromo-3-methyl-pyridin-2-yl)-benzylamino]ethyl]-N^2-[3-(1H-imidazol-4-yl)propyl]-guanidine trihydrochloride]: the Kb in test [1] is 398 nM. Moreover, the EC50 in test [2] (setting [3]) is 6030 nM.
In the same order, the values of `N=C(NCCCc1c[nH]cn1)NCCN(c1ccccc1)c1ccccc1` [Example 145, N^1-[3-(Imidazol-4-yl)propyl]-N^2-[2-(diphenylamino)ethyl]-guanidine trihydrochloride] are 398 nM and 6030 nM.
In the same order, the values of `N=C(NCCCc1c[nH]cn1)NCCN(c1ccccc1)c1ccc(F)cc1` [Example 146, N^1-[3-(Imidazol-4-yl)propyl]-N^2-[2-N-(phenyl-N(4-fluorophenyl)amino)ethyl]-guanidine trihydrochloride] are 1000 nM and 1100 nM.
The matching figures for `N=C(NCCCc1c[nH]cn1)NCCN(c1ccccc1)c1ccccn1` [Example 147, N^1-[3-(Imidazol-4-yl)propyl]-N^2-[2-(N-(2-pyridyl)-N-phenylamino)ethyl]-guanidine trihydrochloride]: 126 nM and 100 nM.
On to `N=C(NCCCc1c[nH]cn1)NCCN(c1ccc(F)cc1)c1ccccn1` [Example 148, N^1-[3-(Imidazol-4-yl)propyl]-N^2-[2-(N-(2-pyridyl)N-(4-fluorophenyl)amino)ethyl]-guanidine trihydrochloride], for which the Kb in test [1] is 15.8 nM. Moreover, in test [2] (setting [3]), the EC50 is 316 nM.
